Data taken from patent US5159077A, “Penam antibacterial compounds” (Hoffmann-La Roche Inc., priority 1989, dated 1992).
Structures can show the parent of a compound that is named as a salt. Where two headings read alike, the source gives them in different places.

Experiments:
[1] = test system: Enterobacter cloacae 5699; experiment: In vitro MIC, Broth Dilution Method; format: cell-based
Protocol: (§1) The diluted agents prepared in Mueller-Hinton broth were dispensed from a Dynatech MIC 2000 machine, in 100 microliter (μL) volumes into 96 well trays and used immediately or frozen at -10° to -70° C. until needed. Using a Dynatech inoculator and inoculum trays, 1.5 μL of a 10^-2 dilution of an overnight culture was added to each well of the tray. The tops of the trays were then sealed with tape, and the trays were incubated overnight at 37° C. and then examined with a viewer. The lowest concentration at which no growth was observed was considered to be the minimum inhibitory concentration (MIC).

[2] = test system: Enterobacter cloacae P99; experiment: In vitro MIC, Broth Dilution Method; format: cell-based; details: P99, read-out: In Vitro MIC
Protocol: as §1

[3] = test system: Escherichia coli 4; experiment: In vitro MIC, Broth Dilution Method; format: cell-based
Protocol: as §1

[4] = test system: Escherichia coli TEM-1; experiment: In vitro MIC, Broth Dilution Method; format: cell-based; details: TEM1, read-out: In Vitro MIC
Protocol: as §1

[5] = test system: Klebsiella pneumoniae A; experiment: In vitro MIC, Broth Dilution Method; format: cell-based; details: read-out: In Vitro MIC
Protocol: as §1

[6] = test system: Proteus mirabilis 2; experiment: In vitro MIC, Broth Dilution Method; format: cell-based
Protocol: as §1

[7] = test system: Proteus vulgaris ATCC 6380; experiment: In vitro MIC, Broth Dilution Method; format: cell-based
Protocol: as §1

[8] = test system: Pseudomonas aeruginosa ATCC 27853; experiment: In vitro MIC, Broth Dilution Method; format: cell-based
Protocol: as §1

[9] = test system: Serratia marcescens SM; experiment: In vitro MIC, Broth Dilution Method; format: cell-based; details: read-out: In Vitro MIC
Protocol: as §1

[10] = test system: Staphylococcus aureus ATCC 29213; experiment: In vitro MIC, Broth Dilution Method; format: cell-based
Protocol: as §1

[11] = test system: Streptococcus faecalis ATCC 29212; experiment: In vitro MIC, Broth Dilution Method; format: cell-based; details: Enterococcus faecalis
Protocol: as §1

[12] = test system: Streptococcus pneumoniae 6301; experiment: In vitro MIC, Broth Dilution Method; format: cell-based
Protocol: as §1

[13] = test system: Enterobacter cloacae 2952B; experiment: In vitro MIC, Agar Well Diffusion Method; format: cell-based; details: Enterobacter cloacae, 2952B, read-out: In Vitro MIC
Protocol: (§2) In vitro antimicrobial activity was determined in BBL seed agar. Serial dilutions of the test compound were pipetted into agar wells (80 μL per well). […] For reference, see A. H. Litton, Antibiotics: Assessment of Antimicrobial Activity and Resistance, Academic Press, New York, pages 19-30 (1983).

[14] = test system: Escherichia coli 1269B; experiment: In vitro MIC, Agar Well Diffusion Method; format: cell-based; details: Escherichia coli, 1269B, read-out: In Vitro MIC
Protocol: as §2

[15] = test system: Klebsiella pneumoniae 369; experiment: In vitro MIC, Agar Well Diffusion Method; format: cell-based; details: Klebsiella pneumoniae, 369, read-out: In Vitro MIC
Protocol: as §2

[16] = test system: Micrococcus luteus PCl; experiment: In vitro MIC, Agar Well Diffusion Method; format: cell-based; details: Micrococcus luteus, read-out: In Vitro MIC
Protocol: as §2

[17] = test system: Proteus vulgaris 101N; experiment: In vitro MIC, Agar Well Diffusion Method; format: cell-based; details: Proteus vulgaris, 101N, read-out: In Vitro MIC
Protocol: as §2

[18] = test system: Pseudomonas aeruginosa 56; experiment: In vitro MIC, Agar Well Diffusion Method; format: cell-based; details: Pseudomonas aeruginosa, 56, read-out: In Vitro MIC
Protocol: as §2

[19] = test system: Pseudomonas aeruginosa B; experiment: In vitro MIC, Agar Well Diffusion Method; format: cell-based; details: Pseudomonas aeruginosa, read-out: In Vitro MIC
Protocol: as §2

[20] = test system: Serratia marcescens SM; experiment: In vitro MIC, Agar Well Diffusion Method; format: cell-based; details: Serratia marcescens, read-out: In Vitro MIC
Protocol: as §2

[21] = test system: Streptococcus faecium ATCC 8043; experiment: In vitro MIC, Agar Well Diffusion Method; format: cell-based; details: Enterococcus faecium, ATCC8043, read-out: In Vitro MIC
Protocol: as §2

[22] = test system: Streptococcus 82; experiment: In vitro MIC, Agar Well Diffusion Method; format: cell-based, Streptococcus aureus; details: Streptococcus, 82, read-out: In Vitro MIC
Protocol: as §2

[23] = test system: Citrobacter freundii BS-16; experiment: In vitro MIC, Broth Dilution Method; format: cell-based
Protocol: as §1

[24] = test system: Proteus mirabilis 90; experiment: In vitro MIC, Broth Dilution Method; format: cell-based
Protocol: as §1

[25] = test system: Pseudomonas aeruginosa Stone 130; experiment: In vitro MIC, Broth Dilution Method; format: cell-based; details: STONE130; Broth Dilution Method; Pseudomonas aeruginosa Stone 130; read-out: In Vitro MIC
Protocol: as §1

[26] = test system: Staphylococcus aureus Smith; experiment: In vitro MIC, Broth Dilution Method; format: cell-based; details: read-out: In Vitro MIC
Protocol: as §1

[27] = Enterobacter cloacae, 5699, read-out: In Vitro MIC
[28] = Escherichia coli, 4, read-out: In Vitro MIC
[29] = Proteus mirabilis, 2, read-out: In Vitro MIC
[30] = Proteus vulgaris, ATCC6380, read-out: In Vitro MIC
[31] = Broth Dilution Method, Enterobacter cloacae 5699, read-out: In Vitro MIC
[32] = Broth Dilution Method, Escherichia coli 4, read-out: In Vitro MIC
[33] = Broth Dilution Method, Klebsiella pneumoniae A
[34] = Broth Dilution Method, Proteus mirabilis 90, read-out: In Vitro MIC
[35] = ATCC27853, Broth Dilution Method, Pseudomonas aeruginosa ATCC 27853, read-out: In Vitro MIC
[36] = ATCC29213, Broth Dilution Method, Staphylococcus aureus ATCC 29213, read-out: In Vitro MIC
[37] = Broth Dilution Method, Staphylococcus aureus Smith
[38] = ATCC29212, Broth Dilution Method, Streptococcus faecalis ATCC 29212, read-out: In Vitro MIC
[39] = Broth Dilution Method, Streptococcus pneumoniae 6301, read-out: In Vitro MIC
[40] = Citrobacter freundii, BS16, read-out: In Vitro MIC
[41] = ATCC6380, Broth Dilution Method, Proteus vulgaris ATCC 6380, read-out: In Vitro MIC

Row | Structure (SMILES) | MIC [1, 27] | MIC [2] | MIC [3, 28] | MIC [4] | MIC [6, 29] | MIC [7, 30] | MIC ([9]; Serratia marcescens) | MIC [1, 31] | MIC [3, 32] | MIC [5, 33] | MIC [24, 34] | MIC [8, 35] | MIC [25] | MIC [10, 36] | MIC [26, 37] | MIC [11, 38] | MIC [12, 39] | MIC [23, 40] | MIC [7, 41] | also measured
1 | CCn1cc(C(=O)[O-])c(=O)c2cc(F)c(N3CCN(C=N[C@@H]4C(=O)N(S(=O)(=O)[O-])[C@@H]4COC(N)=O)CC3)cc21.[Na+].[Na+] [Compound F, (2S-cis)-7-[4-[[[2-[[(Aminocarbonyl)oxy]methyl]-4-oxo-1-sulfo-3-azetidinyl]imino]methyl]-1-piperazinyl]-1-ethyl-6-fluoro-1,4-dihydro-4-oxo-3-quinolinecarboxylic acid disodium salt] | 0.063 µg/mL | 0.125 µg/mL | 0.125 µg/mL | 0.063 µg/mL | 0.063 µg/mL | 0.031 µg/mL | 0.063 µg/mL |  |  |  |  |  |  |  |  |  |  |  |  | MIC ([5]; Klebsiella pneumoniae): 0.125 µg/mL; MIC ([8]; Pseudomonas aeruginosa, ATCC27853, read-out: In Vitro MIC): 2 µg/mL; MIC ([10]; Staphylococcus aureus, ATCC29213, read-out: In Vitro MIC): 2 µg/mL; MIC ([11]; ATCC29212, read-out: In Vitro MIC): 4 µg/mL; MIC ([12]; Streptococcus pneumoniae, 6301, read-out: In Vitro MIC): 8 µg/mL; MIC [13]: 31.3 µg/mL; MIC [14]: 7.8 µg/mL; MIC [15]: 3.9 µg/mL; MIC [16]: 500 µg/mL; MIC [17]: 1.95 µg/mL; MIC [18]: 7.8 µg/mL; MIC [19]: 7.8 µg/mL; MIC [20]: 62.5 µg/mL; MIC [21]: 500 µg/mL; MIC [22]: 31.3 µg/mL
2 | CCn1cc(C(=O)O)c(=O)c2cc(F)c(N3CCN(C=N[C@@H]4C(=O)N5C(C(=O)O)=C(COC(C)=O)CS[C@H]45)CC3)cc21 [Compound I, [6R-[6α,7β(Z)]]-7-[4-[[[3-[Acetyloxy)methyl]-2-carboxylic-8-oxo-5-thia-1-azabicyclo[4..0]oct-2-en-7-yl]imino]methyl]-1-piperazinyl]-1-ethyl-6-fluoro-1,4-dihydro-4-oxo-3-quinolinecarboxylic acid monosodium salt] |  | 0.063 µg/mL |  | 0.063 µg/mL | 0.063 µg/mL | 0.063 µg/mL |  | 0.125 µg/mL | 0.125 µg/mL | 0.125 µg/mL | 0.5 µg/mL | 8 µg/mL | 1 µg/mL | 2 µg/mL | 0.25 µg/mL | 4 µg/mL | 0.5 µg/mL |  |  | MIC ([23]; BS16, Broth Dilution Method, Citrobacter freundii BS-16, read-out: In Vitro MIC): 0.25 µg/mL; MIC ([9]; Broth Dilution Method, Serratia marcescens SM): 0.125 µg/mL
3 | CCn1cc(C(=O)O)c(=O)c2cc(F)c(N3CCN(C=N[C@@H]4C(=O)N5C(C(=O)O)=C(CSc6nc(=O)c(=O)[nH]n6C)CS[C@H]45)CC3)cc21 [Compound J, [6R-[6α,7β(Z)]]-7-[4-[[[2-Carboxy-3-[[(1,2,5,6-tetrahydro-2-methyl-5,6-dioxo-1,2,4-triazin-3-yl)thio]methyl]-8-oxo-5-thia-1-azabicyclo[4.2.0]-oct-2-en-7-yl]-imino]methyl]-1-piperazinyl]-ethyl-6-fluoro-1,4-dihydro-4-oxo-3-quinolinecarboxylic acid disodium salt] |  | 0.5 µg/mL | 0.25 µg/mL | 0.25 µg/mL |  |  | 0.5 µg/mL | 0.25 µg/mL |  | 0.5 µg/mL |  | 16 µg/mL | 8 µg/mL | 2 µg/mL |  | 0.25 µg/mL | 2 µg/mL | 0.5 µg/mL | 0.125 µg/mL | MIC ([6]; Broth Dilution Method, Proteus mirabilis 2, read-out: In Vitro MIC): 0.5 µg/mL; MIC ([24]; Proteus mirabilis, 90, read-out: In Vitro MIC): 1 µg/mL; MIC ([26]; Staphylococcus aureus): 1 µg/mL
4 | CCn1cc(C(=O)O)c(=O)c2cc(F)c(N3CCCN(C=N[C@@H]4C(=O)N5[C@@H]4SC(C)(C)[C@@H]5C(=O)O)CC3)nc21 [Compound K, [2S-(2α,5α,6β)]-7-[4-[[2-Carboxy-3,3-dimethyl-7-oxo-4-thia-1-azabicyclo[3.2.0]hept-6-yl)-imino]methyl]hexahydro-1H, 1,4-diazepin-1-yl]-1-ethyl-6-fluoro-1,4-dihydro-4-oxo-1,8-naphthyridine--carboxylic acid disodium salt] | 4 µg/mL | 1 µg/mL |  | 1 µg/mL | 4 µg/mL |  | 4 µg/mL |  | 2 µg/mL | 2 µg/mL | 8 µg/mL |  | 8 µg/mL | 16 µg/mL | 2 µg/mL | 128 µg/mL | 2 µg/mL | 4 µg/mL | 2 µg/mL | 
